For 7 compounds, IC50 and melting point results are on record in PMC11510561, “Synthesis, Urease Inhibition, Molecular Docking, and Optical Analysis of a Symmetrical Schiff Base and Its Selected Metal Complexes” (Molecules, 2024).

In series [1] the target is T1, urease (Canavalia ensiformis, UniProt P07374). Particulars: cited from earlier work.
Series [2] addresses T1, urease. Kind of series: biochemical. The method, then: The indophenol method as outlined by Weatherburn was employed to assess urease activity by measuring the produced ammonia. Briefly, incubation of the reaction mixture was carried out at 37 degrees Celsius for half an hour on the microplate reader with 96-well plates. The operated mixture consisted of 20 microliters of the enzyme (from 5 units per ml of stock solution), 20 µL of the tested compound (5 mg/mL stock solution), and 50 microliters of the buffer solution. Thiourea was employed as a reference inhibitor, and percentage inhibition was calculated by […].

Setting [3] is: ref [36], read-out: IC50 (urease).

Like-named read-outs stand apart in the source and are kept apart here.

T1 sequence (P07374 whole entry, looked up): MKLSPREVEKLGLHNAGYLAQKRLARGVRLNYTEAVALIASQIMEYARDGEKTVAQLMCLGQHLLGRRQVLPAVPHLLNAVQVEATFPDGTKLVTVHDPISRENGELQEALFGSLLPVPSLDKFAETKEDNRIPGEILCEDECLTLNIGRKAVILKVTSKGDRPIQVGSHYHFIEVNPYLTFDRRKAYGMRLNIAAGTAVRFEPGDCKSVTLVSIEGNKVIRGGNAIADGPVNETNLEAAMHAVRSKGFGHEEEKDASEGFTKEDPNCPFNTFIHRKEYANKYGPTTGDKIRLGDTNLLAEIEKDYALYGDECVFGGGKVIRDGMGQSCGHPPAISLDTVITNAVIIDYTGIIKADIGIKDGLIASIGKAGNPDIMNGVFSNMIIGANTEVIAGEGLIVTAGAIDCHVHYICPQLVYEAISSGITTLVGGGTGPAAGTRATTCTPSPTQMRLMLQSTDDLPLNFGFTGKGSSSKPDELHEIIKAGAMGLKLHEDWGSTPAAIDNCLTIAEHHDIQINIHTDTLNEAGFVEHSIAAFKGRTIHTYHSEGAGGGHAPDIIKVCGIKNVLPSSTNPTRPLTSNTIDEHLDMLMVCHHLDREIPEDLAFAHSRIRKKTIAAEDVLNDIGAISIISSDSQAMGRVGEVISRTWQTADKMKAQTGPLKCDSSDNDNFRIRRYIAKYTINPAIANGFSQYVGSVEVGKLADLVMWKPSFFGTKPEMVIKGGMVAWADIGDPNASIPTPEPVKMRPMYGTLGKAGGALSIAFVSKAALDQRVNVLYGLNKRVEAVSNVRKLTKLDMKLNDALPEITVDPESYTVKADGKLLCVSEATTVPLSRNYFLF

Turning to `CC(=O)NO` [Acetohydroxamic acid], the IC50 on urease [1] (ref [37], read-out: IC50 (urease)) is 7.9 µM; on urease [1] (unit inferred, ref [39], read-out: IC50 (urease), reference drug), 32.1 µM. For the compound `COc1ccc(-c2n[nH]c(=O)n2/N=C/c2cccc(/C=N/n3c(-c4ccc(OC)cc4)n[nH]c3=O)n2)cc1` [Compound 6, 4,4′-((1E,1′E)-(Pyridine-2,6-diylbis(methanylylidene))bis(azanylylidene))bis(3-(4-methoxyphenyl)-1H-1,2,4-triazol-5(4H)-one)], the melting point is 181 to 183 °C. This compound also came in with an IC50 against urease [2] of 21.8 ± 1.88 µM. For `Nn1c(-c2ccncc2)n[nH]c1=S` [Compound C00005], the IC50 at urease [1] (read-out: IC50 (urease), ref [39]) is over 100 µM. In the case of `Nn1c(SCC(=O)O)nnc1-c1ccccn1` [Compound H2L], at urease [1] (read-out: IC50 (urease), ref [38]), the IC50 is 14.7 ± 1.4 µM. For `Nn1c(SCC(=O)O)nnc1-c1ccncc1` [HL], the IC50 at urease [1] (read-out: IC50 (urease), ref [37]) is 15.1 ± 2.22 µM. `NC(=O)NO` [Hydroxyurea]: the IC50 at urease [1] (setting [3]) was 100 µM. As for `NC(N)=S` [Thiourea], the half-inhibitory concentration (IC50) at urease [1] (ref [35], read-out: IC50 (urease)) was 22 µM; at urease [1] (setting [3]), 23 µM; on urease [2] (indophenol method, 37 degrees Celsius, half an hour, thiourea as reference, read-out: Urease Inhibition IC50), 20.7 µM.

In general, IC50 refers to the point on the concentration scale where inhibition reaches its midpoint. Usually melting point stands for the temperature, or range, at which the solid turns liquid.
